The values that follow come from patent publication US20210220328A1, “PYRROLE DERIVATIVES AS ACC INHIBITORS” (Almirall, S.A., priority 2017, published 2021).

The subject of the test is immortalized human sebocyte cell line, SZ95. In words: In vitro assay of inhibition of lipid synthesis. The format is cell-based. The conditions noted are these: 48 h, SZ95 sebocytes. As to the method: In Vitro Assay of Inhibition of Lipid Synthesis
To evaluate the inhibition of lipid synthesis, the immortalized human sebocyte cell line, SZ95 (stablished by Zouboulis, C. C. et al J Invest Dermatol 1999; 113:1011-20), was treated with arachidonic acid (AA) in presence or absence of compound. Lipids were detected by using a lipid sensing fluorophore.
Compounds were dissolved in dimethylsulfoxide (DMSO) 100%. Then the stocks were serial diluted 1/3 in DMSO 100%, and this battery of solutions were diluted 1/10 in culture medium, to minimize the percentage of the DMSO over cells.
10 k cells were plated in 384 well microtiter plates and incubated at 37° C. and 5% CO2 in DMEM/F12 supplemented with 10% FBS, 1.25 ng/ml of rhEGF and GA-1000 before of compound and stimulus addition. After 24 h, compounds dissolved in culture media were added over cells, diluting the solutions prepared 1/40 in the final volume of the assay. Then, cells and compounds were preincubated for 30 min at 37° C. and 5% CO2. After this prior incubation, the lipid synthesis was induced by 75 μM of AA final solution, preparing a solution 10× in culture media. Finally, SZ95 treated were incubated for 48 h at 37° C. and 5% CO2.
Neutral lipids were measured using AdipoRed™, purchased from LONZA. To do that, cells were washed with PBS and incubated with a solution of AdipoRed™ (final dilution 1/80 in PBS) for 30 min at room temperature. After the staining process, the fluorescence intensity (FI) was quantified using a fluorescence plate reader (excitation 485 nm; emission 535).
Activity of compounds were calculated as % of inhibition considering the maximal fluorescence for AA-stimulated cells and the minimum fluorescence for unstimulated cells as controls.

Where [1] appears, read: lipid synthesis induced by 75 μM arachidonic acid, AdipoRed fluorescence, Table 1.
Where [2] appears, read: 75 μM arachidonic acid, AdipoRed, Table 2, finer classes for compounds with IC50 less than 250 nM.

pIC50: −log10 of the molar value. Some results are limits rather than exact numbers.

A word on the pIC50: it is −log10 of the IC50, conventionally taken in molar units. Low values mean a high IC50, high ones a low IC50. Under setting [1], `CCCCCCCCCCCCOc1c[nH]c(C(=O)O)c1` [Example 1, 4-(Dodecyloxy)-1H-pyrrole-2-carboxylic acid] showed a pIC50 of 6.00 to 6.60.

As for `CCCCCCCCCCCCOc1c[nH]c(C(=O)OCC)c1` [Example 2, Ethyl 4-(dodecyloxy)-1H-pyrrole-2-carboxylate], the pIC50 under setting [1] was below 5.30.

`CCCCCCCCCCCCOc1c[nH]c(C(=O)OCCN2C(=O)CCC2=O)c1` [Example 3, 2-(2,5-Dioxopyrrolidin-1-yl)ethyl 4-(dodecyloxy)-1H-pyrrole-2-carboxylate] had a pIC50 under setting [1] of 5.30 to 6.00.

`CCCCCCCCCCCCOc1c[nH]c(C(=O)OCCN2CCCC2=O)c1` [Example 4, 2-(2-Oxopyrrolidin-1-yl)ethyl 4-(dodecyloxy)-1H-pyrrole-2-carboxylate]: the pIC50 under setting [1] was 5.30 to 6.00.

`CCCCCCCCCCCCOc1c[nH]c(C(=O)OCC(F)(F)F)c1` [Example 5, 2,2,2-Trifluoroethyl 4-(dodecyloxy)-1H-pyrrole-2-carboxylate] had a pIC50 under setting [1] of 6.00 to 6.60.

Compound `CCCCCCCCCCCCOc1c[nH]c(C(=O)OCCO)c1` [Example 6, 2-Hydroxyethyl 4-(dodecyloxy)-1H-pyrrole-2-carboxylate] showed a pIC50 under setting [1] of 5.30 to 6.00.

`CCCCCCCCCCCCOc1c[nH]c(C(=O)OCCOCCOCCOCCO)c1` [Example 7, 2-(2-(2-(2-Hydroxyethoxy)ethoxy)ethoxy)ethyl 4-(dodecyloxy)-1H-pyrrole-2-carboxylate] showed a pIC50 under setting [1] below 5.30.

Turning to `CCCCCCCCCCCCOc1c[nH]c(C(=O)OC(C)OC(=O)OC(C)C)c1` (centres unmarked) [Example 8, 1-((Isopropoxycarbonyl)oxy)ethyl 4-(dodecyloxy)-1H-pyrrole-2-carboxylate], the pIC50 runs as follows: under setting [2], 6.60 to 7.00; under setting [1], above 6.60.

As for `CCCCCCCCCCCCOc1c[nH]c(C(=O)OCC(=O)N(C)CC(=O)OCC)c1` [Example 9, 2-((2-Ethoxy-2-oxoethyl)(methyl)amino)-2-oxoethyl 4-(dodecyloxy)-1H-pyrrole-2-carboxylate], the pIC50 under setting [1] is 5.30 to 6.00.

Consider `CCCCCCCCCCCCOc1c[nH]c(C(=O)OCCOC(=O)[C@@H](N)C(C)C)c1` [Example 10, 2-((L-valyl)oxy)ethyl 4-(dodecyloxy)-1H-pyrrole-2-carboxylate], for which the pIC50 under setting [1] is 5.30 to 6.00.

`CCCCCCCCCCCCOc1c[nH]c(C(=O)OCc2oc(=O)oc2C)c1` [Example 11, (5-methyl-2-oxo-1,3-dioxol-4-yl)methyl 4-(dodecyloxy)-1H-pyrrole-2-carboxylate] gave a pIC50 under setting [2] of 6.60 to 7.00 and a pIC50 under setting [1] above 6.60.

As for `CCCCCCCCCCc1c[nH]c(C(=O)O)c1F` [Example 12, 4-Decyl-3-fluoro-1H-pyrrole-2-carboxylic acid], the pIC50 is, setting by setting: under setting [2], above 7.30; under setting [1], above 6.60.

On to `CCCCCCCCCCCc1c[nH]c(C(=O)O)c1F` [Example 13, 3-Fluoro-4-undecyl-1H-pyrrole-2-carboxylic acid], for which the pIC50 runs as follows: under setting [2], above 7.30; under setting [1], above 6.60.

The compound `CCCCCCCCCCCCc1c[nH]c(C(=O)O)c1F` [Example 14, 4-Dodecyl-3-fluoro-1H-pyrrole-2-carboxylic acid] showed a pIC50 under setting [2] above 7.30 and a pIC50 under setting [1] above 6.60.

In the case of `CCCCCCCCCCCCc1c[nH]c(C(=O)OCC(F)(F)F)c1F` [Example 15, 2,2,2-Trifluoroethyl 4-dodecyl-3-fluoro-1H-pyrrole-2-carboxylate], the pIC50 under setting [2] is above 7.30 and the pIC50 under setting [1] is above 6.60.

Regarding `CCCCCCCCCCCCc1c[nH]c(C(=O)OCCOCCOCC)c1F` [Example 16, 2-(2-Ethoxyethoxy)ethyl 4-dodecyl-3-fluoro-1H-pyrrole-2-carboxylate], the pIC50 runs as follows: under setting [2], 7.00 to 7.30; under setting [1], above 6.60.

Regarding `CCCCCCCCCCCCc1c[nH]c(C(=O)OC(C)OC(=O)OC(C)C)c1F` (centres unmarked) [Example 17, 1-((Isopropoxycarbonyl)oxy)ethyl 4-dodecyl-3-fluoro-1H-pyrrole-2-carboxylate], the pIC50 was above 7.30 under setting [2] and above 6.60 under setting [1].

For `CCCCCCCCCCCCc1c[nH]c(C(=O)OC(C)OC(=O)OCCOC)c1F` (centres unmarked) [Example 18, 1-(((2-Methoxyethoxy)carbonyl)oxy)ethyl 4-dodecyl-3-fluoro-1H-pyrrole-2-carboxylate], the pIC50 was 6.60 to 7.00 under setting [2] and above 6.60 under setting [1].

With `CCCCCCCCCCCCc1c[nH]c(C(=O)OC(C)OC(=O)OCCOCCOCC)c1F` (centres unmarked) [Example 19, 4-Oxo-3,5,8,11-tetraoxatridecan-2-yl 4-dodecyl-3-fluoro-1H-pyrrole-2-carboxylate], the pIC50 is above 7.30 under setting [2] and above 6.60 under setting [1].

Under setting [1], `CCCCCCCCCCCCCc1c[nH]c(C(=O)OCC)c1F` [Example 20, Ethyl 3-fluoro-4-tridecyl-1H-pyrrole-2-carboxylate] gave a pIC50 of 5.30 to 6.00.

`CCCCCCCCCCCCCc1c[nH]c(C(=O)O)c1F` [Example 21, 3-Fluoro-4-tridecyl-1H-pyrrole-2-carboxylic acid]: the pIC50 under setting [2] was above 7.30 and the pIC50 under setting [1] is above 6.60.

As to `CCCCCCCCCCCCCc1c[nH]c(C(=O)OC)c1F` [Example 22, Methyl 3-fluoro-4-tridecyl-1H-pyrrole-2-carboxylate], the pIC50 under setting [1] was 5.30 to 6.00.

`CCCCCCCCCCCCCc1c[nH]c(C(=O)OC(C)C)c1F` [Example 23, Isopropyl 3-fluoro-4-tridecyl-1H-pyrrole-2-carboxylate]: under setting [1], the pIC50 was below 5.30.

For the compound `CCCCCCCCCCCCCc1c[nH]c(C(=O)OC(C)(C)C)c1F` [Example 24, Tert-butyl 3-fluoro-4-tridecyl-1H-pyrrole-2-carboxylate], the pIC50 under setting [1] is 6.00 to 6.60.

As for `CCCCCCCCCCCCCc1c[nH]c(C(=O)OC2CCCCC2)c1F` [Example 25, Cyclohexyl 3-fluoro-4-tridecyl-1H-pyrrole-2-carboxylate], under setting [1], the pIC50 was 5.30 to 6.00.

In the case of `CCCCCCCCCCCCCc1c[nH]c(C(=O)OCc2ccccc2)c1F` [Example 26, Benzyl 3-fluoro-4-tridecyl-1H-pyrrole-2-carboxylate], the pIC50 under setting [2] was 6.60 to 7.00 and the pIC50 under setting [1] is above 6.60.

With `CCCCCCCCCCCCCc1c[nH]c(C(=O)OCC(F)(F)F)c1F` [Example 27, 2,2,2-Trifluoroethyl 3-fluoro-4-tridecyl-1H-pyrrole-2-carboxylate], the pIC50 under setting [2] was above 7.30 and the pIC50 under setting [1] was above 6.60.

Consider `CCCCCCCCCCCCCc1c[nH]c(C(=O)OCCN2C(=O)CCC2=O)c1F` [Example 28, 2-(2,5-Dioxopyrrolidin-1-yl)ethyl 3-fluoro-4-tridecyl-1H-pyrrole-2-carboxylate], for which the pIC50 reads like this: under setting [2], 7.00 to 7.30; under setting [1], above 6.60.

On to `CCCCCCCCCCCCCc1c[nH]c(C(=O)OCCN2CCCC2=O)c1F` [Example 29, 2-(2-Oxopyrrolidin-1-yl)ethyl 3-fluoro-4-tridecyl-1H-pyrrole-2-carboxylate], for which the pIC50 is 6.60 to 7.00 under setting [2] and above 6.60 under setting [1].

Take `CCCCCCCCCCCCCc1c[nH]c(C(=O)OCc2oc(=O)oc2C)c1F` [Example 30, (5-Methyl-2-oxo-1,3-dioxol-4-yl)methyl 3-fluoro-4-tridecyl-1H-pyrrole-2-carboxylate]: the pIC50 under setting [2] is above 7.30 and the pIC50 under setting [1] is above 6.60.

`CCCCCCCCCCCCCc1c[nH]c(C(=O)OCC(=O)N(C)CC(=O)OCC)c1F` [Example 31, 2-((2-Ethoxy-2-oxoethyl)(methyl)amino)-2-oxoethyl 3-fluoro-4-tridecyl-1H-pyrrole-2-carboxylate] showed a pIC50 under setting [2] above 7.30 and a negative logarithm of the IC50 (pIC50) under setting [1] above 6.60.

Under setting [1], `CCCCCCCCCCCCCc1c[nH]c(C(=O)OCCO)c1F` [Example 32, 2-Hydroxyethyl 3-fluoro-4-tridecyl-1H-pyrrole-2-carboxylate] showed a pIC50 of 6.00 to 6.60.

On to `CCCCCCCCCCCCCc1c[nH]c(C(=O)OCCCO)c1F` [Example 33, 3-Hydroxypropyl 3-fluoro-4-tridecyl-1H-pyrrole-2-carboxylate], for which the pIC50 is 7.00 to 7.30 under setting [2] and above 6.60 under setting [1].

As to `CCCCCCCCCCCCCc1c[nH]c(C(=O)OCCCCO)c1F` [Example 34, 4-Hydroxybutyl 3-fluoro-4-tridecyl-1H-pyrrole-2-carboxylate], the negative logarithm of the IC50 (pIC50) runs as follows: under setting [2], 6.60 to 7.00; under setting [1], above 6.60.

Consider `CCCCCCCCCCCCCc1c[nH]c(C(=O)OCCCCCO)c1F` [Example 35, 5-Hydroxypentyl 3-fluoro-4-tridecyl-1H-pyrrole-2-carboxylate], for which the pIC50 was 6.60 to 7.00 under setting [2] and above 6.60 under setting [1].

For the compound `CCCCCCCCCCCCCc1c[nH]c(C(=O)OCCCCCCO)c1F` [Example 36, 6-Hydroxyhexyl 3-fluoro-4-tridecyl-1H-pyrrole-2-carboxylate], the pIC50 was 6.60 to 7.00 under setting [2] and above 6.60 under setting [1].

In the case of `CCCCCCCCCCCCCc1c[nH]c(C(=O)OCCCCCCCO)c1F` [Example 37, 7-Hydroxyheptyl 3-fluoro-4-tridecyl-1H-pyrrole-2-carboxylate], the pIC50 is, setting by setting: under setting [2], 6.60 to 7.00; under setting [1], above 6.60.
